According to patent US11618747B2, “LXR modulators with bicyclic core moiety” (OrsoBio, Inc., priority 2018, dated 2023):

Key:
[1] = biological target: T1, LXRβ ligand-binding domain (Homo sapiens, UniProt P55055, DUP175-175); assay: TR-FRETβ activity assay (NCoA3 coactivator peptide recruitment); format: biochemical; conditions: TR-FRET, 1 μM 24(S)-25-epoxycholesterol prestimulation; read-out: FRETβ (EC50 range)
T1 construct: amino acids 156-461; NP009052; made in house; host or cells: E. coli
T1 sequence (P55055 with tags, fused parts or gaps DUP175-175 limits assumed): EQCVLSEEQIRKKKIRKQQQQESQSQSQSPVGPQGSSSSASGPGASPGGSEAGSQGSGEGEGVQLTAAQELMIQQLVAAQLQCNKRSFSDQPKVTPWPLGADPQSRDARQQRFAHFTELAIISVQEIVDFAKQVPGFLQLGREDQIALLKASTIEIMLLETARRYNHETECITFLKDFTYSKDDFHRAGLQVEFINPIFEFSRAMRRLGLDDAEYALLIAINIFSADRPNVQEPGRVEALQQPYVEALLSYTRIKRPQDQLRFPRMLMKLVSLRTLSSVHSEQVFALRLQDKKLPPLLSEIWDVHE
Description: (§1) The tested compounds were usually dissolved, tested and stored as 20 mM stock solutions in DMSO. Since sulfonyl acetic acid derivatives tend to decarboxylate under these conditions, these stock solutions were prepared, tested and stored as 20 mM DMSO stock solutions containing 100 mM trifluoroacetic Acid (5 equivalents). Sulfonyl acetic acid derivatives are shelf stable as solid at rt for long time as reported by Griesbrecht et al. (Synlett 2010:374) or Faucher et al. (J. Med. Chem. 2004; 47:18).
Recombinant GST-LXRPβ ligand-binding domain (LBD; amino acids 156-461; NP009052; SEQ ID NO:4) was expressed in E. coli and purified via gluthatione-sepharose affinity chromatography. N-terminally biotinylated NCoA3 coactivator peptide (SEQ ID NO:7) was chemically synthesized (Eurogentec). Assays were done in 384 well format (final assay volume of 25 μL/well) in a Tris/HCl buffer (pH 6.8) containing KCl, bovine serum albumin, Triton-X-100 and 1 μM 24(S)-25-epoxycholesterol as LXR-prestimulating agonist. Assay buffer was provided and test articles (potential LXR inverse agonists) were titrated to yield final assay concentrations of 50 μM, 16.7 μM, 5.6 μM, 1.9 μM, 0.6 μM, 0.2 μM, 0.07 μM, 0.02 μM, 0.007 μM, 0.002 μM with one vehicle control. Finally, a detection mix was added containing anti GST-Tb cryptate (CisBio; 610SAXLB) and Streptavidin-XL665 (CisBio; 610SAXLB) as fluorescent donor and acceptor, respectively, as well as the coactivator peptide and LXRβ-LBD protein (SEQ ID NO:4). The reaction was mixed thoroughly, equilibrated for 1 h at 4° C. and vicinity of LXRβ and coactivator peptide was detected by measurement of fluorescence in a VictorX4 multiplate reader (PerkinElmer Life Science) using 340 nm as excitation and 615 and 665 nm as emission wavelengths. Assays were performed in triplicates.
Final Assay Concentrations of Components:
240 mM KCl, 1 μg/μL BSA, 0.002% Triton-X-100, […] anti GST-Tb cryptate, 2.5 ng/μL Streptavidin-XL665, coactivator peptide (400 nM), LXRβ protein (530 μg/mL, i.e. 76 nM).

full length (FL) LXRβ = biological target: T2, full length (FL) LXRβ (Homo sapiens, UniProt P55055, DUP175-175); assay: LXR Gal4 reporter transient transfection assay (FL-M2H Gal4β); format: cell-based; conditions: HEK293 cells, full length LXRβ; read-out: FL-M2H Gal4β (EC50 range)
T2 construct: the full length (FL) proteins of LXRα (amino acids 1-447); NP005684; NP009052; expressed in transfected cells; host or cells: HEK293
T2 sequence (P55055 with tags, fused parts or gaps DUP175-175): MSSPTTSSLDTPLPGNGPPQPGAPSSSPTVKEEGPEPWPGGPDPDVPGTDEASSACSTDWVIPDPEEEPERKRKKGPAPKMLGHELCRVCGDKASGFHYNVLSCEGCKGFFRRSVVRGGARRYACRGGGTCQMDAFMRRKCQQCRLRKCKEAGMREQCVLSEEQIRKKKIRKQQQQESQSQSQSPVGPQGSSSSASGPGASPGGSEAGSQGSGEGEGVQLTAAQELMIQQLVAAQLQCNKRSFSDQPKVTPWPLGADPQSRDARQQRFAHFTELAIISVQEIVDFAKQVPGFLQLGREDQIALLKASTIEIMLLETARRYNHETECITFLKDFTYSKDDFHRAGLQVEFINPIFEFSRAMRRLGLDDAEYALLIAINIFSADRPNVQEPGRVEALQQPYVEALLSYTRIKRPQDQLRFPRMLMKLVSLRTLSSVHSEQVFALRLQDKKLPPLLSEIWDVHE
Description: as §1
LXR Gal4 Reporter Transient Transfection Assays
LXRα and LXRβ activity status was determined via detection of interaction with coactivator and corepressor proteins in mammalian two-hybrid experiments (M2H). For this, via transient transfection the full length (FL) proteins of LXRα (amino acids 1-447; NP005684; SEQ ID NO:1) or LXRβ-(amino acids 1-461; NP009052; SEQ ID NO:2) or the ligand-binding domains (LBD) of LXRα (amino acids 155-447 SEQ ID NO:3) or LXRβ (amino acids 156-461; SEQ ID NO:4) were expressed from pCMV-AD (Stratagene) as fusions to the transcriptional activation domain of NFkB. As cofactors, domains of either the steroid receptor coactivator 1 (SRC1; amino acids 552-887; SEQ ID NO:5) or of the corepressor NCoR (amino acids 1906-2312; NP006302; SEQ ID NO:6) were expressed as fusions to the DNA binding domain of the yeast transcription factor GAL4 (from pCMV-BD; Stratagene). Interaction was monitored via activation of a coexpressed Firefly Luciferase Reporter gene under control of a promoter containing repetitive GAL4 response elements (vector pFRLuc; Stratagene). Transfection efficiency was controlled via cotransfection of constitutively active pRL-CMV Renila reniformis luciferase reporter (Promega). HEK293 cells were grown in minimum essential medium (MEM) with 2 mM L-glutamine and Earle's balanced salt solution supplemented with 8.3% fetal bovine serum, 0.1 mM non-essential amino acids, 1 mM sodium pyruvate, at 37° C. in 5% CO2. 3.5×10^4 cells/well were plated in 96-well cell culture plates in growth medium supplemented with 8.3% fetal bovine serum for 16-20 h to ˜90% confluency. For transfection, medium was taken off and LXR and cofactor expressing plasmids as well as the reporter plasmids are added in 30 μL OPTIMEM/well including polyethylene-imine (PEI) as vehicle. Typical amounts of plasmids transfected/well: pCMV-AD-LXR (5 ng), pCMV-BD-cofactor (5 ng), pFR-Luc (100 ng), pRL-CMV (0.5 ng). Compound stocks were prepared in DMSO, prediluted in MEM to a total volume of 120 μL, and added 4 h after addition of the transfection mixture (final vehicle concentration not exceeding 0.2%). Cells were incubated for additional 16 h, lysed for 10 min in 1× Passive Lysis Buffer (Promega) and Firefly and Renilla luciferase activities were measured sequentially in the same cell extract using buffers containing D-luciferine and coelenterazine, respectively. Measurements of luminescence were done in a BMG-luminometer.

| Structure (SMILES) | EC50 [1] [µM] | EC50 (full length (FL) LXRβ) [µM] |
| --- | --- | --- |
| N#Cc1sccc1-c1c(-c2ccccc2)n(S(=O)(=O)c2ccc(CC(=O)O)cc2)c2ccccc12 [27/1] | 1 to 10 |  |
| Cc1ccc(S(=O)(=O)n2c(-c3cccc(-c4ccc(C(=O)NCCS(=O)(=O)O)cc4Cl)c3)c(-c3ccsc3C#N)c3cc(F)ccc32)cc1 [Example 10, 2-(2-Chloro-3′-(3-(2-cyanothiophen-3-yl)-5-fluoro-1-tosyl-1H-indol-2-yl)-[1,1′-biphenyl]-4-carboxamido)ethane-1-sulfonic Acid] | 0.1 to 1 | 0.1 to 1 |
| Cc1ccc(S(=O)(=O)n2c(-c3cccc(-c4ccc(-c5nnn[nH]5)cc4Cl)c3)c(-c3ccsc3C#N)c3cc(F)ccc32)cc1 [Example 37, 3-(2-(2′-Chloro-4′-(1H-tetrazol-5-yl)-[1,1′-biphenyl]-3-yl)-5-fluoro-1-tosyl-1H-indol-3-yl)thiophene-2-carbonitrile] | 0.1 to 1 | < 0.1 |
| N#Cc1sccc1-c1c(-c2cccs2)n(S(=O)(=O)c2ccc(Cl)cc2)c2cc(C(=O)O)ccc12 [Example 19, 1-((4-Chlorophenyl)sulfonyl)-3-(2-cyanothiophen-3-yl)-2-(thiophen-2-yl)-1H-indole-6-carboxylic Acid] | > 10 |  |
| Cc1ccc(S(=O)(=O)n2c(-c3cccc(S(=O)(=O)CC(=O)O)c3)c(-c3ccsc3C#N)c3ccccc32)cc1 [3/15] | 1 to 10 |  |
| Cc1ccc(S(=O)(=O)n2c(-c3cccc(N4CC(C(=O)O)C4)c3)c(-c3ccsc3/C=N/O)c3cc(F)ccc32)cc1 [3/7] | 1 to 10 | < 0.1 |
| Cc1ccc(S(=O)(=O)n2c(-c3cccc(-c4cc(C)c(C(=O)O)cc4Cl)c3)c(-c3ccsc3C#N)c3cc(F)ccc32)cc1 [Example 12, 2-Chloro-3′-(3-(2-cyanothiophen-3-yl)-5-fluoro-1-tosyl-1H-indol-2-yl)-5-methyl-[1,1′-biphenyl]-4-carboxylic acid] | 0.1 to 1 | < 0.1 |
| Cc1ccc(S(=O)(=O)n2c(-c3cccc(-c4ccc(C(=O)O)cc4Cl)c3)c(-c3ccccc3C#N)c3cc(F)ccc32)cc1 [Example 11, 2-Chloro-3′-(3-(2-cyanophenyl)-5-fluoro-1-tosyl-1H-indol-2-yl)-[1,1′-biphenyl]-4-carboxylic acid] | < 0.1 | < 0.1 |
| Cc1ccc(S(=O)(=O)n2c(-c3cccc(-c4ccc(CN(C)C)cc4Cl)c3)c(-c3ccsc3C#N)c3cc(F)ccc32)cc1 [Example 2, 3-(2-(2′-Chloro-4′-((dimethylamino)methyl)-[1,1′-biphenyl]-3-yl)-5-fluoro-1-tosyl-1H-indol-3-yl)thiophene-2-carbonitrile] | 0.1 to 1 | < 0.1 |
| Cc1ccc(S(=O)(=O)n2c(-c3cccc(-c4ccc(C(=O)NO)cc4)c3)c(-c3ccsc3C#N)c3cc(F)ccc32)cc1 [Example 6, 3′-(3-(2-Cyanothiophen-3-yl)-5-fluoro-1-tosyl-1H-indol-2-yl)-N-hydroxy-[1,1′-biphenyl]-4-carboxamide] | 0.1 to 1 | < 0.1 |
| Cn1cnc(S(=O)(=O)n2c(-c3cccc(C4CC4C(=O)O)c3)c(-c3ccsc3C#N)c3ccccc32)c1 (stereo not drawn) [30/10] | > 10 |  |
| N#Cc1sccc1-c1c(-c2ccccc2)n(S(=O)(=O)c2ccc(CC(=O)O)s2)c2ccccc12 [27/3] | > 10 |  |
| Cc1ccc(S(=O)(=O)n2c(-c3cccc(-c4cncc(S(=O)(=O)CC(=O)O)c4)c3)c(-c3ccsc3C#N)c3ccccc32)cc1 [Example 5, 2-((5-(3-(3-(2-Cyanothiophen-3-yl)-1-tosyl-1H-indol-2-yl)phenyl)pyridin-3-yl)sulfonyl)acetic Acid] | 0.1 to 1 | 1 to 10 |
| Cc1cccc(C#N)c1-c1c(-c2cccc(-c3ccc(C(=O)O)cc3Cl)c2)n(S(=O)(=O)c2ccc(C(F)F)cc2)c2ccc(F)cc12 [11/36, 2-chloro-3′-(3-(2-cyano-6-methylphenyl)-1-((4-(difluoro-methyl)phenyl)sulfonyl)-5-fluoro-1H-indol-2-yl)-[1,1′-biphenyl]-4-carboxylic Acid] | < 0.1 | < 0.1 |
| N#Cc1sccc1-c1c(-c2cccs2)n(S(=O)(=O)c2ccc(Cl)cc2)c2cc(OCC(=O)O)ccc12 [15/3] | > 10 |  |
| N#Cc1sccc1-c1c(-c2ccccc2)n(S(=O)(=O)c2ccc(-c3cccc(C(=O)O)c3)cc2)c2ccccc12 [27/2] | 1 to 10 |  |
| Cc1ccc(S(=O)(=O)n2c(-c3cccc(N4CC(C(=O)O)C4)c3)c(-c3ccsc3C(=O)N(C)C)c3cc(F)ccc32)cc1 [3/28] | > 10 | 1 to 10 |
| N#Cc1cccc(C#N)c1-c1c(-c2cccc(-c3ccc(C(=O)O)cc3Cl)c2)n(S(=O)(=O)c2ccc(C(F)F)cc2)c2cc(F)c(O)cc12 [Example 44, 2-Chloro-3′-(3-(2,6-dicyanophenyl)-1-((4-(difluoromethyl)phenyl)sulfonyl)-6-fluoro-5-hydroxy-1H-indol-2-yl)-[1,1′-biphenyl]-4-carboxylic Acid] | 0.1 to 1 | < 0.1 |
| N#Cc1cccc(C#N)c1-c1c(-c2cccc(-c3ccc(C(=O)O)cc3)c2)n(S(=O)(=O)c2ccc(C(F)F)cc2)c2ccc(F)cc12 [11/50] | < 0.1 | < 0.1 |
| Cc1ccc(S(=O)(=O)n2c(-c3cccc(-c4ccc(C(N)=O)cc4)c3)c(-c3ccsc3C#N)c3cc(F)ccc32)cc1 [6/2] | 0.1 to 1 | < 0.1 |
